SMILES strings stand for the structures.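 Five concentrations, 48 hours, 96-well plates. TGI is the concentration that stops growth completely.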

Experiment in all cases: growth of human tumour cells (NCI), 48 h
The test system of assay [1] is SF-268 CNS.
In assay [2] the test system is HL-60(TB) leukemia.
In assay [3] the test system is NCI-H522 lung.
The test system of assay [4] is KM12 colon.
Assay [5] relates to MDA-MB-231 breast.
The test system of assay [6] is UO-31 renal.
In assay [7] the test system is EKVX NSCLC.
Assay [8] relates to HOP-92 NSCLC.
In assay [9] the test system is SNB-19 CNS.
Assay [10] deals with T-47D breast.

With `CCc1c[n+]2c(cc1C1=CN3c4ccccc4[C@]45CCN6C/C(=C/CO)[C@H](C[C@H]64)[C@@H]([C@@H]1O)[C@H]35)-c1[nH]c3ccccc3c1CC2`, the TGI in assay [1], in [2], in assay [3], in assay [4], in assay [5] and in assay [6] was more than 50 µM each time. In addition, the TGI in [7], in assay [8], in [9] and in [10] was more than 50 µM in each case.

Take `CCOP(=O)(OCC)C(Cc1cn(S(=O)(=O)c2ccc(C)cc2)cn1)C(=O)O` (stereo not drawn): the TGI in [1], in assay [2], in assay [3], in [4], in assay [5] and in assay [6] was more than 100 µM throughout. Further, the TGI in [7], in assay [8], in assay [9] and in [10] was more than 100 µM each time.

Take `C[C@]12CC[C@@H]3c4cc(C=O)c(OCc5ccccc5)cc4CC[C@H]3[C@@H]1CCC2OCc1ccccc1` (stereo partly drawn): the TGI in assay [1], in [2], in assay [3], in [4], in [5] and in [6] was more than 100 µM throughout. The TGI in assay [7], in assay [8] and in [10] was more than 100 µM throughout.

For `CN(C)CC(O)CNC(=O)Nc1ccccc1` (stereo not drawn), the TGI in [1], in assay [2], in [4], in assay [5], in assay [6] and in assay [7] was more than 100 µM each time. Also, the TGI in assay [8], in assay [9] and in assay [10] was more than 100 µM each time.

Regarding `CNC(=O)/C(C#N)=C(\N)N1CCCC1`, the TGI in assay [1], in assay [2], in assay [3], in assay [4], in assay [5] and in assay [6] was more than 100 µM throughout. Besides, the TGI in assay [7], in [9] and in [10] was more than 100 µM in each case.

Regarding `C=c1c2ccccc2oc2nc3[nH]c(N)c(C#N)c(N)c3c(=N)c12`, the TGI in assay [1] is 70.9 µM; in [2], 90.3 µM; in assay [4] it was 56.4 µM; in [5], more than 100 µM; in [6], more than 100 µM; in assay [7], 73 µM. In addition, the TGI in assay [8], in assay [9] and in assay [10] was more than 100 µM each time.

`COc1ccc2nc3c(nc2c1)C(C)(C)C=C3c1ccc(Br)cc1`: the TGI in [1], in assay [2], in [3], in assay [4], in [5] and in assay [7] was more than 100 µM in each case. In addition, the TGI in [8], in [9] and in [10] was more than 100 µM each time.

In the case of `Clc1cccc(C=NC23CC4CC(CC(C4)C2)C3)c1Cl`, the TGI in assay [1], in [2], in assay [3], in assay [4], in assay [5] and in [7] was more than 10 µM in each case. Also, the TGI in assay [8], in [9] and in [10] was more than 10 µM each time.

Turning to `COc1ccccc1-c1nc[nH]c1-c1ccccc1OC`, the TGI is 65.3 µM in [1]; 42.1 µM in assay [3]; 28.3 µM in [4]; more than 100 µM in assay [5]; more than 100 µM in assay [6]; more than 100 µM in [7]. The TGI in [8], in assay [9] and in assay [10] was more than 100 µM each time.

For the molecule `Clc1ccc(CCNCCNC2(c3cc4ccccc4s3)CCCCC2)cc1Cl`, the TGI in [1] worked out at 3.37 µM; in assay [3] it was 3.37 µM; in assay [4], 3.1 µM; in assay [5], 3.24 µM; in assay [6] it was 3.46 µM; in [7] it was 3.99 µM. Further, the TGI turned out to be 3.15 µM in assay [8], 3.83 µM in assay [9] and 4.07 µM in assay [10].

`CCc1cc2c(cc1O)CC[C@@H]1[C@@H]2CC[C@]2(C)[C@@H](O)CC[C@@H]12`: the TGI was determined as 24.6 µM in [1]; 7.66 µM in assay [2]; 27.3 µM in assay [3]; 17.4 µM in assay [4]; 21.4 µM in assay [5]; 21.8 µM in [6]. For the same molecule, the TGI in assay [7] is 25.5 µM; in [9] it was 19 µM; in [10] it was 32.9 µM.

Take `O=C(NC1CCCCC1)N1CCNC1=S`: the TGI is more than 100 µM in assay [1]; more than 100 µM in assay [2]; more than 100 µM in assay [3]; more than 100 µM in [4]; 8.05 µM in assay [5]; more than 100 µM in assay [6]. The TGI in [7], in assay [8] and in assay [10] was more than 100 µM in each case.

As to `Cc1cc2nc3c(C)c4ccccc4c(C)n3c2cc1C`, the TGI in assay [1] is more than 10 µM; in [2], 6.33 µM; in assay [3] it was more than 10 µM; in assay [4] it was more than 10 µM; in [5], 7.51 µM; in assay [7], more than 10 µM. For the same molecule, the figures for the TGI in [8], in assay [9] and in assay [10] were 8.45 µM, more than 10 µM and more than 10 µM, respectively.

As for `CC(C)C(C=O)C(O)(C(F)(F)F)C(F)(F)F` (stereo not drawn), the TGI in assay [2], in [3], in assay [4], in assay [5], in assay [6] and in assay [7] was more than 100 µM in each case. In addition, the TGI in assay [8], in [9] and in [10] was more than 100 µM each time.

The record behind these values is PubChem BioAssay (NCI).
